For this experiment, the system named is FOXC2-expressing HMLER cells. Kind of experiment: Cell Titer Glo viability of FOXC2-HMLER cells (high throughput screen and 10-point response). Format: cell-based. The conditions noted are these: Homo sapiens; scored relative to parent compound 2; 72 hours; read-out: Activity Score, inhibition of FOXC2-expressing HMLER cells by Formula II compounds. An outline of the steps:
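FOXC2-HMLER cells (HMLER run in parallel) seeded at 1,000 cells/well in MEGM, attached 1 h, then given compound in DMSO (2 μM in the screen). After 72 h, viability was read by Cell Titer Glo luminescence.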
A general note: In ATP-based viability assays light output follows the ATP content of the culture.

Consider `COc1cc2cc(CNc3ccc(C)cc3)c(=O)n(CC(=O)Nc3cc(C)cc(C)c3)c2cc1OC` [Compound 2DJ], for which the IC50 is over 20 µM.
The figure for `CCc1ccc(NCc2cc3cc(OC)c(OC)cc3n(CC(=O)Nc3ccccc3C)c2=O)cc1` [Compound 2DK] is over 20 µM.
The figure for `CCc1ccc(NC(=O)Cn2c(=O)c(CNc3ccc(OC)cc3)cc3ccc(OC)cc32)cc1` [Compound 2DL] is over 20 µM; for `COc1ccc2cc(CNc3ccccc3)c(=O)n(CC(=O)Nc3ccccc3)c2c1` [Compound 2DM] it is over 20 µM; for `COc1ccc2cc(CNc3ccc(C)cc3)c(=O)n(CC(=O)Nc3cccc(F)c3)c2c1` [Compound 2DN] it is over 20 µM.
The figure for `COc1ccc(NC(=O)Cn2c(=O)c(CNc3ccccc3)cc3cc(OC)c(OC)cc32)cc1` [Compound 2DO] is over 20 µM; for `COc1cc2cc(CNc3ccccc3)c(=O)n(CC(=O)Nc3cc(Cl)ccc3C)c2cc1OC` [Compound 2DP] it is over 20 µM; for `CCc1ccc(NCc2cc3ccc(OC)cc3n(CC(=O)NCc3ccc(C)cc3)c2=O)cc1` [Compound 2DQ] it is over 20 µM.
With `COc1ccc2cc(CNc3ccc(C)cc3)c(=O)n(CC(=O)Nc3ccc(C)c(Cl)c3)c2c1` [Compound 2DR], the IC50 was over 20 µM.
The figure for `COc1ccc2cc(CNc3ccccc3)c(=O)n(CC(=O)Nc3ccc(C(C)C)cc3)c2c1` [Compound 2DS] is over 20 µM; for `CCc1ccc(NCc2cc3ccc(OC)cc3n(CC(=O)Nc3ccc(C)cc3)c2=O)cc1` [Compound 2DT] it is over 20 µM.
Consider `COc1ccccc1NC(=O)Cn1c(=O)c(CNc2ccccc2)cc2ccc(C)cc21` [Compound 2DU], for which the IC50 was over 20 µM.
With `CCc1ccc(NCc2cc3ccc(OC)cc3n(CC(=O)Nc3ccccc3OC)c2=O)cc1` [Compound 2DV] the figure was over 20 µM; with `CCc1ccc(NCc2cc3cc4c(cc3n(CC(=O)Nc3ccccc3)c2=O)OCCO4)cc1` [Compound 2DW], over 20 µM; with `COc1cccc(NC(=O)Cn2c(=O)c(CNc3ccccc3)cc3ccc(OC)cc32)c1` [Compound 2DX], over 20 µM.
As for `COc1ccc(NCc2cc3cc4c(cc3n(CC(=O)NCc3ccccc3)c2=O)OCCO4)cc1` [Compound 2DY], the IC50 was over 20 µM.
The figure for `COc1ccc2cc(CNc3ccc(C)cc3)c(=O)n(CC(=O)NCc3ccc(F)cc3)c2c1` [Compound 2DZ] is over 20 µM; for `CCOC(=O)c1ccccc1NC(=O)Cn1c(=O)c(CNc2ccc(C)cc2)cc2ccc(OC)cc21` [Compound 2D] it is 1 to 20 µM.
In the case of `CCc1ccc(NCc2cc3ccc(OC)cc3n(CC(=O)NCc3ccccc3)c2=O)cc1` [Compound 2EA], the IC50 is over 20 µM.
Consider `COc1ccc2cc(CNc3ccc(C)cc3)c(=O)n(CC(=O)Nc3ccccc3Cl)c2c1` [Compound 2EB], for which the IC50 was over 20 µM.
The figure for `CCc1ccc(NCc2cc3cc(OC)c(OC)cc3n(CC(=O)Nc3ccc(C)c(C)c3)c2=O)cc1` [Compound 2EC] is over 20 µM; for `COc1ccc2cc(CNc3ccccc3)c(=O)n(CC(=O)Nc3cccc(C)c3)c2c1` [Compound 2ED] it is over 20 µM.
With `COc1ccc2cc(CNc3ccccc3)c(=O)n(CC(=O)Nc3cccc(C(F)(F)F)c3)c2c1` [Compound 2EE] the figure was over 20 µM.
The figure for `COc1ccccc1NC(=O)Cn1c(=O)c(CNc2ccccc2)cc2cc3c(cc21)OCCO3` [Compound 2EF] is over 20 µM.
For the compound `COc1ccc2cc(CNc3ccccc3)c(=O)n(CC(=O)Nc3ccc4c(c3)OCCO4)c2c1` [Compound 2EG], the IC50 was over 20 µM.
The figure for `COc1cc2cc(CNc3ccccc3)c(=O)n(CC(=O)Nc3cccc(C)c3)c2cc1OC` [Compound 2EH] is over 20 µM.
With `COc1ccc(NC(=O)Cn2c(=O)c(CNc3ccc(C)cc3)cc3ccc(OC)cc32)cc1` [Compound 2EI] the figure was over 20 µM.
With `COc1ccc2cc(CNc3ccccc3)c(=O)n(CC(=O)Nc3ccc(F)c(F)c3)c2c1` [Compound 2EJ] the figure was over 20 µM; with `CCc1ccc(NCc2cc3ccc(OC)cc3n(CC(=O)Nc3ccc(C(C)C)cc3)c2=O)cc1` [Compound 2EK], over 20 µM.
`COc1ccc2cc(CNc3ccc(C)cc3)c(=O)n(CC(=O)Nc3cccc(C)c3)c2c1` [Compound 2EL]: the IC50 is over 20 µM.
With `COc1ccc(NCc2cc3cc(OC)c(OC)cc3n(CC(=O)Nc3ccccc3C)c2=O)cc1` [Compound 2EM] the figure was over 20 µM.
With `COc1ccc2cc(CNc3ccccc3)c(=O)n(CC(=O)Nc3ccc(C)cc3C)c2c1` [Compound 2EN] the figure was over 20 µM; with `COc1ccc(NCc2cc3ccc(OC)cc3n(CC(=O)Nc3ccc(C)c(Cl)c3)c2=O)cc1` [Compound 2EO], over 20 µM.
With `COc1cc2cc(CNc3ccccc3)c(=O)n(CC(=O)Nc3ccccc3)c2cc1OC` [Compound 2EP] the figure was over 20 µM; with `O=C(Cn1c(=O)c(CNc2ccccc2)cc2cc3c(cc21)OCCO3)Nc1ccccc1` [Compound 2EQ], over 20 µM; with `COc1ccc2cc(CNc3ccc(C)cc3)c(=O)n(CC(=O)Nc3ccc(C(C)C)cc3)c2c1` [Compound 2ER], over 20 µM.
`COc1ccccc1NC(=O)Cn1c(=O)c(CNc2ccccc2)cc2cc(OC)c(OC)cc21` [Compound 2ES]: the IC50 is over 20 µM.
With `COc1ccc2cc(CNc3ccccc3)c(=O)n(CC(=O)Nc3ccc(C)cc3)c2c1` [Compound 2ET] the figure was over 20 µM; with `COc1cccc(NC(=O)Cn2c(=O)c(CNc3ccc(OC)c(OC)c3)cc3ccc(C)cc32)c1` [Compound 2EU], over 20 µM; with `COc1ccc(NCc2cc3ccc(OC)cc3n(CC(=O)Nc3cccc(Cl)c3)c2=O)cc1` [Compound 2EV], over 20 µM.
With `COc1ccc2cc(CNc3ccccc3)c(=O)n(CC(=O)Nc3cc(F)ccc3F)c2c1` [Compound 2EW] the figure was over 20 µM; with `COc1ccc2cc(CNc3ccccc3)c(=O)n(CC(=O)Nc3cccc(C(C)=O)c3)c2c1` [Compound 2EX], over 20 µM.
The figure for `Cc1ccc(NCc2cc3cc4c(cc3n(CC(=O)Nc3ccc(C)cc3C)c2=O)OCCO4)cc1` [Compound 2EY] is over 20 µM.
With `COc1ccc2cc(CNc3ccccc3)c(=O)n(CC(=O)Nc3cccc(Cl)c3C)c2c1` [Compound 2EZ], the IC50 is over 20 µM.
As for `CCOc1ccc(NC(=O)Cn2c(=O)c(CNc3ccc(C)cc3)cc3ccc(OC)cc32)cc1` [Compound 2E], the IC50 was 1 to 20 µM.
Take `COc1ccc2cc(CNc3ccccc3)c(=O)n(CC(=O)Nc3cccc(SC)c3)c2c1` [Compound 2FA]: the IC50 was over 20 µM.
As for `CCc1ccc(NC(=O)Cn2c(=O)c(CNc3ccc(C)cc3)cc3cc(OC)c(OC)cc32)cc1` [Compound 2FB], the IC50 was over 20 µM.
The figure for `COc1ccc2cc(CNc3ccc(C)cc3)c(=O)n(CC(=O)Nc3cc(Cl)ccc3C)c2c1` [Compound 2FC] is over 20 µM.
Regarding `COc1ccc(NCc2cc3ccc(OC)cc3n(CC(=O)Nc3cc(Cl)ccc3C)c2=O)cc1` [Compound 2FD], the IC50 was over 20 µM.
For the compound `COc1cc2cc(CNc3ccccc3)c(=O)n(CC(=O)Nc3ccc(C)c(C)c3)c2cc1OC` [Compound 2FE], the IC50 was over 20 µM.
For the compound `COc1cc2cc(CNc3ccc(C)cc3)c(=O)n(CC(=O)Nc3ccccc3C)c2cc1OC` [Compound 2FF], the IC50 is over 20 µM.
With `O=C(Cn1c(=O)c(CNc2ccccc2)cc2cc3c(cc21)OCCO3)Nc1ccc2c(c1)OCCO2` [Compound 2FG] the figure was over 20 µM; with `COc1cc2cc(CNc3ccc(C)cc3)c(=O)n(CC(=O)Nc3ccc(Cl)cc3)c2cc1OC` [Compound 2FH], over 20 µM; with `COc1ccc2cc(CNc3ccc(C)cc3)c(=O)n(CC(=O)Nc3ccc(C)c(F)c3)c2c1` [Compound 2FI], over 20 µM.
With `CCc1ccccc1NC(=O)Cn1c(=O)c(CNc2ccc(C)cc2)cc2ccc(OC)cc21` [Compound 2FJ] the figure was over 20 µM.
Turning to `COc1ccc2cc(CNc3ccc(OC)c(OC)c3)c(=O)n(CC(=O)Nc3cccc(C)c3)c2c1` [Compound 2FK], the IC50 is over 20 µM.
In the case of `CCc1cccc(NC(=O)Cn2c(=O)c(CNc3ccc(C)cc3)cc3ccc(OC)cc32)c1` [Compound 2FL], the IC50 was over 20 µM.
Consider `COc1cccc(NC(=O)Cn2c(=O)c(CNc3ccccc3)cc3ccc(C)cc32)c1` [Compound 2FM], for which the IC50 was over 20 µM.
The figure for `COc1ccc2cc(CNc3ccc(C)cc3)c(=O)n(CC(N)=O)c2c1` [Compound 2FN] is over 20 µM.
As to `CCc1ccc(NCc2cc3ccc(OC)cc3n(CC(=O)Nc3cccc(F)c3)c2=O)cc1` [Compound 2FO], the IC50 was over 20 µM.
With `COc1cc2cc(CNc3ccccc3)c(=O)n(CC(=O)Nc3ccc(Cl)cc3)c2cc1OC` [Compound 2FP] the figure was over 20 µM; with `Cc1ccc(C)c(NC(=O)Cn2c(=O)c(CNc3ccccc3)cc3cc4c(cc32)OCCO4)c1` [Compound 2FQ], over 20 µM; with `CCc1ccc(NCc2cc3ccc(OC)cc3n(CC(=O)Nc3ccc4c(c3)OCCO4)c2=O)cc1` [Compound 2FR], over 20 µM.
With `COc1cc2cc(CNc3ccccc3)c(=O)n(CC(=O)Nc3ccccc3Cl)c2cc1OC` [Compound 2FS] the figure was over 20 µM.
With `CCc1ccc(NCc2cc3ccc(OC)cc3n(CC(=O)Nc3cccc(OC)c3)c2=O)cc1` [Compound 2FT] the figure was over 20 µM; with `COc1cc2cc(CNc3ccc(C)cc3)c(=O)n(CC(=O)Nc3ccccc3)c2cc1OC` [Compound 2FU], over 20 µM.
Regarding `COc1ccc2cc(CNc3ccc(C)cc3)c(=O)n(CC(=O)Nc3ccccc3)c2c1` [Compound 2FV], the IC50 is over 20 µM.
The figure for `Cc1ccc(NCc2cc3cc4c(cc3n(CC(=O)Nc3ccc(C)cc3)c2=O)OCCO4)cc1` [Compound 2FW] is over 20 µM.
Take `COc1ccc(NCc2cc3ccc(OC)cc3n(CC(=O)Nc3ccc(C)c(C)c3)c2=O)cc1` [Compound 2FX]: the IC50 was over 20 µM.

The values are drawn from patent publication US11759461B2, “Small molecule inhibitors of cancer stem cells and mesenchymal cancer types” (The Scripps Research Institute, priority 2017, dated 2023).
